Source: PubChem BioAssay AID256 (DTP/NCI, 2004)
“And” between values parts separate entries of the source, which are not always exact repeats. Equal entries are not always repeated. Toxic doses and inconclusive results are not listed. Rule for the calls: active = survival T/C of 150% or more; inactive = T/C below 125% in these data.

Test system: CD2F1 mice, L1210 leukemia ip, survival T/C
Assay: NCI In Vivo Anticancer Drug Screen. Data for tumor model L1210 Leukemia (intraperitoneal) in CD2F1 (CDF1) mice
Settings: endpoint: mean survival time, higher = longer survival
How it was run: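 Mice carrying a transplanted tumor received test compound or vehicle alone. The value is the measurement in the treated group divided by that in the vehicle-treated control group.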

[1] = dose: 100.0 mg/kg/injection, schedule: Q04DX003 (ip), vehicle: saline with Tween-80
[2] = dose: 200.0 mg/kg/injection, schedule: Q04DX003 (ip), vehicle: saline with Tween-80
[3] = dose: 400.0 mg/kg/injection, schedule: Q04DX003 (ip), vehicle: saline with Tween-80
[4] = dose: 100.0 mg/kg/injection, schedule: Q01DX009 (ip), vehicle: saline with Tween-80
[5] = dose: 100.0 mg/kg/injection, schedule: Q01DX001 (ip), vehicle: Klucel (hydroxypropylcellulose) (HPC)
[6] = dose: 200.0 mg/kg/injection, schedule: Q01DX001 (ip), vehicle: Klucel (hydroxypropylcellulose) (HPC)
[7] = dose: 400.0 mg/kg/injection, schedule: Q01DX001 (ip), vehicle: Klucel (hydroxypropylcellulose) (HPC)

Measured: T/C

CN(C)/C=N/c1c(CO)c(-c2ccccc2)nn1-c1ccccc1
inactive: [1] 101 % of control | [2] 95 % of control | [3] 95 % of control

CCCC(=O)OCc1ccc(Cl)c(Cl)c1
inactive: dose: 50.0 mg/kg/injection, schedule: Q01DX009 (ip), vehicle: saline with Tween-80 97 % of control | [4] 92 % of control | [1] 91 % of control | [2] 87 % of control

CN(CC#N)N=Nc1ccc(C(N)=O)cc1
inactive: dose: 4.68 mg/kg/injection, schedule: Q01DX009 (ip), vehicle: Klucel (hydroxypropylcellulose) (HPC) 96 % of control and 98 % of control | dose: 9.37 mg/kg/injection, schedule: Q01DX009 (ip), vehicle: Klucel (hydroxypropylcellulose) (HPC) 102 % of control and 104 % of control | dose: 18.75 mg/kg/injection, schedule: Q01DX009 (ip), vehicle: Klucel (hydroxypropylcellulose) (HPC) 95 % of control and 98 % of control | dose: 37.5 mg/kg/injection, schedule: Q01DX009 (ip), vehicle: Klucel (hydroxypropylcellulose) (HPC) 102 % of control and 107 % of control | dose: 75.0 mg/kg/injection, schedule: Q01DX009 (ip), vehicle: Klucel (hydroxypropylcellulose) (HPC) 118 % of control

Nc1ccc(NC(=O)Nc2ccccc2)cc1
inactive: [5] 88 % of control | [6] 96 % of control | [7] 96 % of control

COC1=CCC2=C(C1)C1(C)CCCC(C)(CO)C1CC2 (stereo not given)
inactive: [1] 94 % of control | [2] 92 % of control | [3] 97 % of control

O=C(O)c1c(Cl)cc(Cl)c(-c2c(Cl)cc(Cl)c(C(=O)O)c2Cl)c1Cl
inactive: [4] 103 % of control | [1] 92 % of control | dose: 200.0 mg/kg/injection, schedule: Q01DX009 (ip), vehicle: saline with Tween-80 98 % of control | [2] 98 % of control | dose: 400.0 mg/kg/injection, schedule: Q01DX009 (ip), vehicle: saline with Tween-80 104 % of control | [3] 100 % of control

CC(C)C1=CCC(OC(=O)N=C=Nc2ccccc2)CC1 (stereo not given)
inactive: [5] 93 % of control | dose: 100.0 mg/kg/injection, schedule: Q04DX002 (ip), vehicle: saline with Tween-80 90 % of control | [6] 91 % of control | dose: 200.0 mg/kg/injection, schedule: Q04DX002 (ip), vehicle: saline with Tween-80 96 % of control | [7] 94 % of control | dose: 400.0 mg/kg/injection, schedule: Q04DX002 (ip), vehicle: saline with Tween-80 93 % of control
